Here are results for 13 compounds from ChEMBL document CHEMBL6114942, “(E)-3-(3-([1,1'-Biphenyl]-4-yl)-1-phenyl-1H-pyrazol-4-yl)-1-phenylprop-2-en-1-ones inducing reactive oxygen species generation through glutathione depletion” (Bioorg Med Chem Lett, 2025).

The source made the active and inactive calls. The calls are words filed in the database; no cut-off is given here.

Data set [1] deals with MIA PaCa-2. Description: Induction of reactive oxygen species generation in human MIA PaCa-2 cells assessed as ROS level at 50 uM measured after 12 hrs by DCF-DA staining based flow cytometry (reference value: 461.5 +/- 57.3). In kind it is functional. (Flow cytometry measures light scatter and fluorescence of single cells or particles in a stream.)
For data set [2], the system named is MIA PaCa-2. Description: Induction of apoptosis in human MIA PaCa-2 cells assessed as viable cells at 100 uM measured after 48 hrs by Annexin-V-FITC/propidium iodide staining based flow cytometry (reference value: 71%). In kind it is functional. The settings on record: read-out: Activity.
The subject of data set [3] is MIA PaCa-2. Description: Induction of apoptosis in human MIA PaCa-2 cells assessed as late apoptotic cells at 50 uM measured after 24 hrs by Annexin-V-FITC/propidium iodide staining based flow cytometry (reference value: 4%). Type of data set: functional.
Data set [4] concerns MIA PaCa-2. Description: Induction of apoptosis in human MIA PaCa-2 cells assessed as early apoptotic cells at 50 uM measured after 48 hrs by Annexin-V-FITC/propidium iodide staining based flow cytometry (reference value: 15%). In kind it is functional.
Data set [5] concerns MIA PaCa-2. Briefly: Induction of apoptosis in human MIA PaCa-2 cells assessed as late apoptotic cells at 100 uM measured after 24 hrs by Annexin-V-FITC/propidium iodide staining based flow cytometry (reference value: 4%). Type of data set: functional.
Data set [6] deals with MIA PaCa-2. Briefly: Induction of apoptosis in human MIA PaCa-2 cells assessed as viable cells at 50 uM measured after 48 hrs by Annexin-V-FITC/propidium iodide staining based flow cytometry (reference value: 71%). Type of data set: functional. Conditions: read-out: Activity.
Data set [7] has as its system MIA PaCa-2. Description: Induction of apoptosis in human MIA PaCa-2 cells measured after 24 to 48 hrs by Annexin-V-FITC/propidium iodide staining based flow cytometry. Type of data set: functional, cell-based. Conditions: dose 50-100 µM, time 24-48 hrs.
In data set [8] the test system is MIA PaCa-2. Briefly: Induction of apoptosis in human MIA PaCa-2 cells assessed as necrotic cells at 100 uM measured after 24 hrs by Annexin-V-FITC/propidium iodide staining based flow cytometry (reference value: 9%). In kind it is functional.
Data set [9] can be described thus: Induction of GSH depletion in human Primary pancreatic epithelial cells assessed as cell population with high GSH level at 50 uM measured after 18 hrs by VB-48/propidium iodide staining based flow cytometry (reference value: 93%). In kind it is toxicity.
Data set [10] has as its system MIA PaCa-2. Briefly: Induction of apoptosis in human MIA PaCa-2 cells assessed as early apoptotic cells at 100 uM measured after 48 hrs by Annexin-V-FITC/propidium iodide staining based flow cytometry (reference value: 15%). In kind it is functional.
The subject of data set [11] is MIA PaCa-2. Description: Induction of GSH depletion in human MIA PaCa-2 assessed as cell population with high GSH level at 50 uM measured after 18 hrs by VB-48/propidium iodide staining based flow cytometry (reference value: 95%). Type of data set: functional.
The nature of data set [12]: Induction of GSH depletion in human Primary pancreatic epithelial cells assessed as cell population with low GSH level at 50 uM measured after 18 hrs by VB-48/propidium iodide staining based flow cytometry (reference value: 7%). In kind it is toxicity.
The subject of data set [13] is MIA PaCa-2. Briefly: Induction of apoptosis in human MIA PaCa-2 cells assessed as necrotic cells at 50 uM measured after 48 hrs by Annexin-V-FITC/propidium iodide staining based flow cytometry (reference value: 11%). In kind it is functional.
Data set [14] has as its system MIA PaCa-2. Description: Induction of apoptosis in human MIA PaCa-2 cells assessed as viable cells at 100 uM measured after 24 hrs by Annexin-V-FITC/propidium iodide staining based flow cytometry (reference value: 74%). Type of data set: functional. Conditions: read-out: Activity.
Data set [15] concerns MIA PaCa-2. Briefly: Inhibition of GST activity in human MIA PaCa-2 cells at 50 uM using CDNB as substrate measured after 6 hrs by spectrophotometric method. Type of data set: cell-based.
Data set [16] concerns MIA PaCa-2. Briefly: Induction of reactive oxygen species generation in human MIA PaCa-2 cells at 50 uM measured after 12 hrs by DCF-DA staining based phase-contrast fluorescence microscopy. Type of data set: functional, cell-based.
The test system of data set [17] is MIA PaCa-2. Description: Induction of apoptosis in human MIA PaCa-2 cells assessed as necrotic cells at 100 uM measured after 48 hrs by Annexin-V-FITC/propidium iodide staining based flow cytometry (reference value: 11%). In kind it is functional.
For data set [18], the system named is MIA PaCa-2. Briefly: Induction of apoptosis in human MIA PaCa-2 cells assessed as necrotic cells at 50 uM measured after 24 hrs by Annexin-V-FITC/propidium iodide staining based flow cytometry (reference value: 9%). In kind it is functional.
The subject of data set [19] is MIA PaCa-2. Briefly: Induction of GSH depletion in human MIA PaCa-2 assessed as cell population with low GSH level at 50 uM measured after 18 hrs by VB-48/propidium iodide staining based flow cytometry (reference value: 5%). In kind it is functional.
Data set [20] concerns MIA PaCa-2. Briefly: Induction of apoptosis in human MIA PaCa-2 cells assessed as early apoptotic cells at 50 uM measured after 24 hrs by Annexin-V-FITC/propidium iodide staining based flow cytometry (reference value: 13%). Type of data set: functional.
The subject of data set [21] is MIA PaCa-2. Description: Induction of apoptosis in human MIA PaCa-2 cells assessed as late apoptotic cells at 50 uM measured after 48 hrs by Annexin-V-FITC/propidium iodide staining based flow cytometry (reference value: 3%). Type of data set: functional.
The test system of data set [22] is MIA PaCa-2. Briefly: Induction of apoptosis in human MIA PaCa-2 cells assessed as early apoptotic cells at 100 uM measured after 24 hrs by Annexin-V-FITC/propidium iodide staining based flow cytometry (reference value: 13%). In kind it is functional.
The test system of data set [23] is MIA PaCa-2. Briefly: Induction of apoptosis in human MIA PaCa-2 cells assessed as viable cells at 50 uM measured after 24 hrs by Annexin-V-FITC/propidium iodide staining based flow cytometry (reference value: 74%). Conditions: read-out: Activity. Type of data set: functional.
The subject of data set [24] is MIA PaCa-2. Description: Induction of apoptosis in human MIA PaCa-2 cells assessed as late apoptotic cells at 100 uM measured after 48 hrs by Annexin-V-FITC/propidium iodide staining based flow cytometry (reference value: 3%). In kind it is functional.

As for `COc1ccc(-n2cc(/C=C/C(=O)c3cccc(OC)c3)c(-c3ccc(-c4ccccc4)cc3)n2)cc1`, the Activity with MIA PaCa-2 [1] amounted to 720.5.
With `O=C(/C=C/c1cn(-c2ccccc2)nc1-c1ccc(-c2ccccc2)cc1)c1cc(Cl)ccc1O`, the Activity in the data set on MIA PaCa-2 [1] was found to be 661.
Consider `COc1cccc(O)c1C(=O)/C=C/c1cn(-c2ccccc2)nc1-c1ccc(-c2ccccc2)cc1`, for which, in the data set with MIA PaCa-2 [1], the Activity amounted to 580.5.
Consider `O=C(/C=C/c1cn(-c2ccccc2)nc1-c1ccc(-c2ccccc2)cc1)c1ccc(O)cc1`, for which the Activity in the data set on MIA PaCa-2 [1] stood at 639.
Turning to `CC1=CC(=O)c2ccccc2C1=O` [MENADIONE], the Activity with MIA PaCa-2 [1] was determined as 1160.5.
For `COc1ccc(C(=O)/C=C/c2cn(-c3ccc(F)cc3)nc2-c2ccc(-c3ccccc3)cc2)cc1OC`, the Activity with MIA PaCa-2 [1] was 534.5.
Still for that read-out and setting: then `O=C(/C=C/c1cn(-c2ccccc2)nc1-c1ccc(-c2ccccc2)cc1)c1cc(F)ccc1O`, with 540.
Consider `COc1ccccc1C(=O)/C=C/c1cn(-c2ccccc2)nc1-c1ccc(-c2ccccc2)cc1`, for which the Activity in the data set on MIA PaCa-2 [1] amounted to 619.5.
In the case of `COc1ccc(C(=O)/C=C/c2cn(-c3ccc(F)cc3)nc2-c2ccc(-c3ccccc3)cc2)cc1`, in the data set on MIA PaCa-2 [1], the Activity is recorded as 529.5.
Regarding `COc1cccc(C(=O)/C=C/c2cn(-c3ccccc3)nc2-c2ccc(-c3ccccc3)cc2)c1`, the Activity in the data set with MIA PaCa-2 [1] is 680.
Consider `COc1ccc(-n2cc(/C=C/C(=O)c3ccccc3OC)c(-c3ccc(-c4ccccc4)cc3)n2)cc1`, for which, in the data set on MIA PaCa-2 [1], the Activity turned out to be 535.5.
As to `COc1cccc(C(=O)/C=C/c2cn(-c3ccc(F)cc3)nc2-c2ccc(-c3ccccc3)cc2)c1`, the Activity in the data set with MIA PaCa-2 [1] is 675.
As to `COc1ccc(C(=O)/C=C/c2cn(-c3ccc(OC)cc3)nc2-c2ccc(-c3ccccc3)cc2)cc1`, the Activity in the data set with MIA PaCa-2 [1] is 799.5; in the data set with MIA PaCa-2 [3] it was 7%; with MIA PaCa-2 [4], 65%; in the data set on MIA PaCa-2 [5] it was 6%; in the data set on MIA PaCa-2 [7] it was “Dose-dependent-effect”; in the data set with MIA PaCa-2 [8], 3%. The Activity in data set [9] was 86%; with MIA PaCa-2 [10], 74%; with MIA PaCa-2 [11] it was 55%; in data set [12] it was 14%; in the data set with MIA PaCa-2 [13], 5%; with MIA PaCa-2 [16], “Active; Most Effective Among The Tested Compounds”. In addition, the Activity was 4% in the data set on MIA PaCa-2 [17]; 6% in the data set on MIA PaCa-2 [18]; 44% with MIA PaCa-2 [19]; 39% with MIA PaCa-2 [20]; 8% in the data set with MIA PaCa-2 [21]; 60% in the data set with MIA PaCa-2 [22]. The Activity with MIA PaCa-2 [24] was 11%. In addition, the viability at 100 µM in the data set on MIA PaCa-2 [2] is 11%; in the data set with MIA PaCa-2 [14], 30%. Besides, the viability at 50 µM is 22% in the data set on MIA PaCa-2 [6] and 49% in the data set on MIA PaCa-2 [23]. Besides, the inhibition entry with MIA PaCa-2 [15] is “Active”.
